Legend:
[1] = in vivo; cited from earlier work
[2] = Single dose pharmacokinetics of VRx-3996 in patients given oral nanatinostat and valganciclovir; format: in vivo, humans; conditions: Treatment C = 10 mg VRx-3996 p.o. and 900 mg Valganciclovir p.o., N 4
HDAC1 = HDAC1 (Homo sapiens, UniProt Q13547); test: HDAC activity assay (fluorescence); format: biochemical; conditions: HDAC1, 10 μM HDAC Substrate 3
Procedure: (§1) Briefly, all of the compounds are dissolved in DMSO. A series of dilutions of the compounds were prepared with 10% DMSO in HDAC assay buffer and 5 μl of the dilution was added to a 50 μl reaction so that the final concentration of DMSO is 1% in all of reactions. The compounds were pre-incubated in duplicate at RT for 1 hour in a mixture containing HDAC assay buffer, 5 μg BSA, HDAC enzyme (see Table 7) and a the particular HDACi. After 1 hour, the enzymatic reactions were initiated by the addition of HDAC substrate (BPS Bioscience) to a final concentration of 10 μM or 2 μM. The enzymatic reaction proceeded for 30 minutes at 37° C.
(§2) HDAC activity assays were performed in duplicates at each concentration. The fluorescent intensity data were analyzed using the computer software, Graphpad Prism. In the absence of the compound, the fluorescent intensity (Ft) in each data set was defined as 100% activity. In the absence of HDAC, the fluorescent intensity (Fb) in each data set was defined as 0% activity. The percent activity in the presence of each compound was calculated according to the following equation: % activity=(F−Fb)/(Ft−Fb), where F=the fluorescent intensity in the presence of the compound. […]

HDAC3/NCOR2 = HDAC3/NCOR2 (Homo sapiens, UniProt O15379); test: HDAC activity assay (fluorescence); format: biochemical; conditions: HDAC3/NCOR2, 10 μM HDAC Substrate 3
Sequence of HDAC3/NCOR2 (O15379 whole entry): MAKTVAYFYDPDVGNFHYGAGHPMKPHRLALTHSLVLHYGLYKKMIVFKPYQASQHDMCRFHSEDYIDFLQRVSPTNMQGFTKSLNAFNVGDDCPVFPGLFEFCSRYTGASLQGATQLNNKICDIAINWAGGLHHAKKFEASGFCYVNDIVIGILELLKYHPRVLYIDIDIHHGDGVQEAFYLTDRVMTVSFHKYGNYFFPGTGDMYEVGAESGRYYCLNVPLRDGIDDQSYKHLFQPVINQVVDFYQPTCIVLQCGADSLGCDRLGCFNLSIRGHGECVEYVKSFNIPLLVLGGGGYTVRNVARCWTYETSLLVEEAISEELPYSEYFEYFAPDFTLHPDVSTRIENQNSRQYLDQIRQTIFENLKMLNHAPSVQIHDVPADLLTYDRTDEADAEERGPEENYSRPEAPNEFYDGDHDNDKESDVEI
Sequence of HDAC3/NCOR2 (Q9Y618 395-489 partner limits assumed): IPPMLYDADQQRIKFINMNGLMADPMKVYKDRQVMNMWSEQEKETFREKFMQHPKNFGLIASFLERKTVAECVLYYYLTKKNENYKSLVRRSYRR
Procedure: as §1, §2

HDAC2 = HDAC2 (Homo sapiens, UniProt Q92769); format: biochemical; conditions: HDAC2, 10 μM HDAC Substrate 3
Sequence of HDAC2 (Q92769 whole entry): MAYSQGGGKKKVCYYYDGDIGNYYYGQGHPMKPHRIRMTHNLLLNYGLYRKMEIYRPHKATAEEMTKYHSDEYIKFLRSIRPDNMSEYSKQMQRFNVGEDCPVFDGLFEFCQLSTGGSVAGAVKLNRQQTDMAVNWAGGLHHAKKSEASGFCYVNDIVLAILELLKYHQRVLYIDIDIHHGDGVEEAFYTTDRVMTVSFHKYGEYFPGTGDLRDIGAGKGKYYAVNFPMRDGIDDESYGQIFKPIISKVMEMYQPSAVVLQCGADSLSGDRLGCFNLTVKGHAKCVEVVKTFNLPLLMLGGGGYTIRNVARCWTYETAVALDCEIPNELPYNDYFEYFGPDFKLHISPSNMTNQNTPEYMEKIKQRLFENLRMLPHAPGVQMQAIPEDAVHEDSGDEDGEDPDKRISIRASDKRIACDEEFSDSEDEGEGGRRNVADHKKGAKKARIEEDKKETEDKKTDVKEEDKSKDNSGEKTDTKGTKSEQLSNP
Procedure: as §1, §2

HDAC6 = target: T1, HDAC6 (Homo sapiens, UniProt Q9UBN7); conditions: HDAC6, 10 μM HDAC Substrate 3
T1 sequence (Q9UBN7 1-1215): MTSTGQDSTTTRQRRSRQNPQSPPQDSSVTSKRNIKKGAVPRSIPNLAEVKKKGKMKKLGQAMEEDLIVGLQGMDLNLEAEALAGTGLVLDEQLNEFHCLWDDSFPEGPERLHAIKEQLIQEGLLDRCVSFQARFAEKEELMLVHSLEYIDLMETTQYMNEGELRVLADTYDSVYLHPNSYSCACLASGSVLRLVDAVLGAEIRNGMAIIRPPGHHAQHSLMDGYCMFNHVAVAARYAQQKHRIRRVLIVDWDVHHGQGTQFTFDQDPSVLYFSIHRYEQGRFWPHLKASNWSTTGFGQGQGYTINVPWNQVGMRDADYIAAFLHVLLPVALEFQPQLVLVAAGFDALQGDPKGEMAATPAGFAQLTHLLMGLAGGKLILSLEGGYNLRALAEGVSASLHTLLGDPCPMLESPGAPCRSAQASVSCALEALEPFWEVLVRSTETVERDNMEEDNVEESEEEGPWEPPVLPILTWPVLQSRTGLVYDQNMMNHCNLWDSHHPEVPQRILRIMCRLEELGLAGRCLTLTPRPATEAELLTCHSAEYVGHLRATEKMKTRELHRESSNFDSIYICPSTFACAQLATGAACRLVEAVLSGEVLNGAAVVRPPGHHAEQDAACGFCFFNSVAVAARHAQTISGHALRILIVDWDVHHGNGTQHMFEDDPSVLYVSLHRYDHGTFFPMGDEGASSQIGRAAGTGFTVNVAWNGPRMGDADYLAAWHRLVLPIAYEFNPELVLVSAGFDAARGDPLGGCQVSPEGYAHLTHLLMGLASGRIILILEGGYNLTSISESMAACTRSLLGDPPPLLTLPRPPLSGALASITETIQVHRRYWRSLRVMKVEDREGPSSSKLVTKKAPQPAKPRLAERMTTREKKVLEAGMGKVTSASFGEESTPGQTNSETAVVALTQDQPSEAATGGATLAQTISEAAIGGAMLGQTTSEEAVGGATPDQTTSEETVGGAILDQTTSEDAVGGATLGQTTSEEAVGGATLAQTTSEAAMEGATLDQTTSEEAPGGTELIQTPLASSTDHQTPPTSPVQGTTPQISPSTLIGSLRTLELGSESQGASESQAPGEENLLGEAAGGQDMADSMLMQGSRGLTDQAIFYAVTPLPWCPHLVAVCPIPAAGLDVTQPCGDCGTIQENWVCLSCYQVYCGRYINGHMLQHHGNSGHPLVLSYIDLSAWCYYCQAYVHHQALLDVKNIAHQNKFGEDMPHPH
Procedure: as §1, §2

[3] = test system: Histone 3 acetylation in peripheral blood mononuclear cells; test: H3 acetylation in peripheral blood mononuclear cells of healthy donors (flow cytometry); format: cell-based, human
Description: Percentage of cells with H3 acetylation, as determined by flow cytometry, is shown.
Since H3 acetylation is a pharmacodynamic biomarker of Nstat activity, acetylation of H3 was examined in treated cells.

[4] = test system: P3HR1 Burkitt's lymphoma cells; test: Cell death by 7AAD staining after Nstat, washout, then ganciclovir
Procedure: P3HR1 Burkitt's lymphoma cells were incubated with DMSO (solvent control) or Nstat for 3 days. After that time cell cultures were washed re-fed with ganciclovir (GCV) for an additional 3 days. All test conditions were run in triplicate. Cell death was measured by 7AAD staining.

Sequence of HDAC1 (Q13547 whole entry): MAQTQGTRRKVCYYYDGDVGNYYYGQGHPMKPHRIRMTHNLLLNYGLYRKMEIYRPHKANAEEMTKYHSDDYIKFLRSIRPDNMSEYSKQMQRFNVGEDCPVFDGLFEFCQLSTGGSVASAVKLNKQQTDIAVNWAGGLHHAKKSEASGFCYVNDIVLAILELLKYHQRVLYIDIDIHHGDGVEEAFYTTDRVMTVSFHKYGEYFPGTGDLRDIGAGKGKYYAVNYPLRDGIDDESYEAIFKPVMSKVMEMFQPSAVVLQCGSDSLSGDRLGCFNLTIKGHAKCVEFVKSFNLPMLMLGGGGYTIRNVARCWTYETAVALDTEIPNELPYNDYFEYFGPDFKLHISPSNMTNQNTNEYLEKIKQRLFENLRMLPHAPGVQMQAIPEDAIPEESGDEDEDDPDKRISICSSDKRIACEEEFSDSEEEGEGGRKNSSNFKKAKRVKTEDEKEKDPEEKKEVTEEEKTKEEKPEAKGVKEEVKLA

Question: For `Nc1ccccc1NC(=O)c1ccc(CNC(=O)OCc2cccnc2)cc1` [MS-275, entinostat], which elimination half-life [1] is on record?
Answer: The elimination half-life was “approximately 36 hours”.

Question: What does the source list for `O=C(NO)c1cnc(N2C[C@@H]3[C@H](C2)[C@H]3NCc2ccc3cc(F)ccc3n2)nc1` [Nstat, 2-((1R,5S,6s)-6-(((6-fluoroquinolin-2-yl)methyl)amino)-3-azabicyclo[3.1.0]hexan-3-yl)-N-hydroxypyrimidine-5-carboxamide]?
Answer: AUC, geometric mean [2]: 322 ng·h/mL; IC50 (HDAC1): 3.6 nM; IC50 (HDAC3/NCOR2): 12 nM; IC50 (HDAC2): 12 nM; IC50 (HDAC6): 450 nM; duration of effect on H3 acetylation ([3]; PBMC from healthy donors, doses down to 10 nM, FIG. 3): long-lasting; potency in inducing elevated levels of Histone 3 acetylation ([3]; PBMC of healthy volunteers, even at a dose of 100 nM, FIG. 2): much more potent than entinostat; increase of cytotoxic activity when combined with Ganciclovir [4]: ~40%; cell cytotoxicity when combined with ganciclovir ([4]; EBV infected cell line P3HR1, effect seen even after Nstat removal): increases cell cytotoxicity

Reference: US20220226322A1, “METHODS OF TREATING VIRALLY ASSOCIATED CANCERS WITH HISTONE DEACETYLASE INHIBITORS” (priority 2019, published 2022)
